From patent US5914339A, “Substituted 1,3-benzodioxoles” (American Home Products Corporation, priority 1997, dated 1999)
Read-outs that look alike come from different tables or passages of the source.

Key:
[1] = target: human β2 adrenergic receptor (Homo sapiens, UniProt P07550); test: cell-based
Method in brief: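 CHO cells transfected with human β1 or β2 adrenergic receptors were grown to confluence and exposed to compound at 10 nM for 10 min at 37° C. Cellular cAMP was measured by scintillation proximity assay. Activity is expressed as % of the response to 10 μM isoproterenol; EC50 (μM) was determined for selected compounds.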

plasma free fatty acids = test: Effects on plasma free fatty acid levels in rats; format: in vivo, rat; details: Rattus norvegicus, 50 min; elevation of plasma free fatty acids, oral gavage; selected compounds; read-out: Rat Free Fatty Acid: ED50
Protocol: Rats respond to a single oral dose of β3 agonists by increasing plasma free fatty acids (FFA) in response to β3 receptor stimulation on the plasma membrane of the fat cell. 5-{2-[2-(3-Chloro-phenyl)-2-hydroxy-ethylamino]-propyl}-benzo[1,3]dioxole- 2,2-dicarboxylic acid diisopropyl ester (Standard 2) was used as a standard compound. All test compounds were dosed at 0.1 mg/kg and compared to the response by Standard 2.
1). Drugs were dissolved in DMSO at 10 mg/ml.
2). Twenty μl of the DMSO-drug solution was added to 10 mL methyl cellulose:tween-80 (0.5%:0.1%) for a final concentration of 20 μg/mL.
3). Methyl cellulose:tween-80 drug suspension was given via gavage (1 mL/200 g body weight; or 0.1 mg/kg) to rats and blood was collected 50 min later.
4). Plasma was analyzed for free fatty acids using a kit supplied by Biochemical Diagnostics Inc. (Brentwood, N.Y.).
5). Drug response was calculated from the formula below. [formula]
^b Elevation of plasma free fatty acids in rats, compounds tested at
0.1 mg/kg, results expressed as % of
5{2[2(3-Chloro-phenyl)-2-hydroxy-ethylaminopropylbenzo[1,3dioxole-2,2-dic
rboxylic acid diisopropyl ester response (78% increase) at 0.1 mg/kg.
ED50 (mg/kg) values determined for selected compounds.

plasma glucose = test: Effects on hyperglycemia in db/db mice, plasma glucose; format: in vivo, mouse (male, db/db (C57BL/KsJ)); details: Mus musculus, po, 96 h; p.o., 4 days, mean of 2 and 4 h values on Day 4; footnote c gives mg/kg/day; read-out: db/db Mice Plasma Glucose: ED50 for lowering of plasma glucose
[2] = target: human β1 adrenergic receptor (Homo sapiens, UniProt P08588); test: Human β1 adrenergic receptor agonist activity, cAMP increase in transfected CHO cells; format: cell-based
Chain of human β1 adrenergic receptor (P08588 whole entry): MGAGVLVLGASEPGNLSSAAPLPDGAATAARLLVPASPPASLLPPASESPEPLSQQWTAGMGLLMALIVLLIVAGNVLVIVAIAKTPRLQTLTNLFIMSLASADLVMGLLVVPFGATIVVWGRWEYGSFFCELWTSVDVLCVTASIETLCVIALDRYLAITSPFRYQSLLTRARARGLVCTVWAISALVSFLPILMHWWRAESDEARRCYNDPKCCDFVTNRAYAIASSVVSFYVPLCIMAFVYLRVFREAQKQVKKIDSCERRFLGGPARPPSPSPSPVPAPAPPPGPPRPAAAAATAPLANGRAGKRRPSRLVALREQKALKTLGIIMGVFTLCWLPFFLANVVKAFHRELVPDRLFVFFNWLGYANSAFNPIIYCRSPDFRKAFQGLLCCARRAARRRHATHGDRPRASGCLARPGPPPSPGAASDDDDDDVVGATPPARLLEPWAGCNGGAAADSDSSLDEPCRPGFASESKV
Protocol: (§1) The activity of the test compounds on human β-adrenergic receptors was determined with Chinese hamster ovary (CHO) cells transfected with human β2, or β1 adrenergic receptors. Agonist activity is indicated by increased cAMP levels in the CHO cells. Selectivity of the test compounds for the β3 receptor was assessed by comparison with results in β2 and β1 adrenergic receptor transfected cells.
1). Chinese hamster ovary (CHO) cells transfected with human β2, or β1 adrenergic receptors were used in the assay.
2). Cells were grown to confluent conditions in 24 well plates.
3). Drugs were dissolved in DMSO at a concentration of 10 μM.
4). Cells were incubated with drug at 10 nM concentration for 10 min at 37° C.
5). Cell cAMP concentrations were assayed using a scintillation proximity assay kit from Amersham Corp., Chicago, Ill.
6). Activities for the test compounds are expressed as a percentage of the isoproterenol response.
Production of the CHO cells transfected with human β2, or β1 adrenergic receptors, and compound test procedures utilizing the CHO cells, are described by Emorine et al. in their article "Molecular Characterization of the Human Beta3 -Adrenergic Receptor", Science 1989, 245(8), 1118-1121 and by Muzzin et al. in the article "An Adipose Tissue-Specific Beta3 -Adrenergic Receptor", J. Biol. Chem.1991, 266, 24053-24058.
^a Human β receptors expressed in Chinese hamster ovary cells,
compounds tested at 10 nM, results expressed as % of isoproterenol
activity (increase in cAMP) at 10 μM. EC50 (μM) values
determined for selected compounds.

[3] = system: human β-adrenergic receptors; test: cAMP elevation in all 3 transfected CHO cell types; format: cell-based; details: 10 μM, all 3 cell types
Protocol: as §1
4). […]

[4] = cAMP in CHO cells, selected compounds, read-out: β2: EC50
[5] = cAMP in CHO cells, selected compounds, read-out: β1: EC50

Chain of human β2 adrenergic receptor (P07550 whole entry): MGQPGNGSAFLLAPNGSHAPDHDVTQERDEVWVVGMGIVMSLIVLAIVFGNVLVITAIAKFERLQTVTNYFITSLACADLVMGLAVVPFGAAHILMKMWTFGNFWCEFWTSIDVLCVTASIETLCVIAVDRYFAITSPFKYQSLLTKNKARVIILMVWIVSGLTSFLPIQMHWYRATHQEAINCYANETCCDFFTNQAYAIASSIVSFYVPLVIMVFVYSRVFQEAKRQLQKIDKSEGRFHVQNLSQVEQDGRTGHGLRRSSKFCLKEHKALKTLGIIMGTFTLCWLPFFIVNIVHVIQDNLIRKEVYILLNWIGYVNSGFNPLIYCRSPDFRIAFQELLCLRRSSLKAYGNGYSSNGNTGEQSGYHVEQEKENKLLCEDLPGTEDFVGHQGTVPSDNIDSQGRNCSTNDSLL

Row | SMILES | EC50 [1, 4] [nM] | EC50 [2, 5] [nM] | ED50 (plasma free fatty acids) [mg/kg] | ED50 (plasma glucose) [mg/kg] | EC50 [2] [nM] | EC50 [1] [nM] | cAMP elevation [3]
1 | CC(Cc1ccc2c(c1)OC(C(=O)O)(C(=O)OCC1CCC1)O2)NCC(O)c1cccc(Cl)c1 (stereo not drawn) [Example 70, 5-{2-[2-(3-Chloro-phenyl)-2-hydroxy-ethylamino]-propyl}-benzo[1,3]dioxole-2,2-dicarboxylic acid cyclobutylmethyl ester] |  |  |  |  | 3000 | 48 | 
2 | CC(C)CCOC(=O)C1(C(=O)O)Oc2ccc(C[C@@H](C)NC[C@H](O)c3cccc(Cl)c3)cc2O1 (stereo partly drawn) [Example 76, 5-{(2R)-2-[(2R)-2-(3-Chloro-phenyl)-2-hydroxy-ethylamino]-propyl}-benzo[1,3]dioxole-2,2-dicarboxylic acid (3-methylbutyl)ester] |  |  |  |  | 980 | 74 | 
3 | C[C@H](Cc1ccc2c(c1)OC(C(=O)O)(C(=O)OCC(C)(C)C)O2)NC[C@H](O)c1cccc(Cl)c1 (stereo partly drawn) [Example 80, 5-{(2R)-2-[(2R)-2-(3-Chloro-phenyl)-2-hydroxy-ethylamino]-propyl}-benzo[1,3]dioxole-2,2-dicarboxylic acid (2,2-dimethyl-propyl)ester] |  |  |  |  | 2400 | 55 | 
4 | CC(C)NCC(O)c1ccc(O)c(O)c1 (stereo not drawn) [Isoproterenol] |  |  |  |  |  |  | maximal cAMP elevation

Now from value to molecule, other results behind:

Row | EC50 [1, 4] [nM] | EC50 [2, 5] [nM] | SMILES | ED50 (plasma free fatty acids) [mg/kg] | ED50 (plasma glucose) [mg/kg] | EC50 [2] [nM] | EC50 [1] [nM] | cAMP elevation [3]
5 | 22 |  | CC(Cc1ccc2c(c1)OC(C(=O)OCCc1ccccc1)(C(=O)OCCc1ccccc1)O2)NCC(O)c1cccc(Cl)c1.Cl (stereo not drawn) [Example 2, 5-{2-[2-(3-Chloro-phenyl)-2-hydroxy-ethylamino]-propyl}-benzo[1,3]dioxole-2,2-dicarboxylic acid diphenethyl ester hydrochloride salt] | 0.071 | 0.128 |  |  | 
6 | 100 | 5900 | CC(Cc1ccc2c(c1)OC(C(=O)OCCC(C)(C)C)(C(=O)OCCC(C)(C)C)O2)NCC(O)c1cccc(Cl)c1 (stereo not drawn) [Example 33, 5-{2-[2-(3-Chloro-phenyl)-2-hydroxy-ethylamino]-propyl}-benzo[1,3]dioxole-2,2-dicarboxylic acid bis-(3,3-dimethyl-butyl) ester] | 0.08 | 0.201 |  |  | 
7 | 420 | 8400 | CC(Cc1ccc2c(c1)OC(C(=O)OCC1CCC1)(C(=O)OCC1CCC1)O2)NCC(O)c1cccc(Cl)c1 (stereo not drawn) [Example 40, 5-{2-[2-(3-Chloro-phenyl)-2-hydroxy-ethylamino]-propyl}-benzo[1,3]dioxole-2,2-dicarboxylic acid bis-cyclobutylmethyl ester] | 0.071 |  |  |  | 
8 | 58 | 5400 | CC(C)CCOC(=O)C1(C(=O)OCCC(C)C)Oc2ccc(C[C@@H](C)NC[C@H](O)c3cccc(Cl)c3)cc2O1 [Example 75, 5-{(2R)-2-[(2R)-2-(3-Chloro-phenyl)-2-hydroxy-ethylamino]-propyl}-benzo[1,3]dioxole-2,2-dicarboxylic acid bis-(3-methylbutyl)ester] | 0.026 | 0.11 |  |  | 
9 | 325 | 5000 | C[C@H](Cc1ccc2c(c1)OC(C(=O)OCC(C)(C)C)(C(=O)OCC(C)(C)C)O2)NC[C@H](O)c1cccc(Cl)c1 [Example 78, 5-{(2R)-2-[(2R)-2-(3-Chloro-phenyl)-2-hydroxy-ethylamino]-propyl}-benzo[1,3]dioxole-2,2-dicarboxylic acid bis-(2,2-dimethyl-propyl) ester] | 0.027 | 0.028 |  |  | 
10 | 59 | 380 | C[C@H](Cc1ccc2c(c1)OC(C(=O)O)(C(=O)OCCC(C)(C)C)O2)NC[C@H](O)c1cccc(Cl)c1 (stereo partly drawn) [Example 81, 5-{(2R)-2-[(2R)-2-(3-Chloro-phenyl)-2-hydroxy-ethylamino]-propyl}-benzo[1,3]dioxole-2,2-dicarboxylic acid (3,3-dimethylbutyl) ester] |  |  |  |  | 
